Row | Structure (SMILES) | melting point
1 | CN1C(=O)CN(CC(=O)NCCC(=O)O)C(=O)c2cc(NC(=N)N)ccc21.Cl | 126 °C
2 | CN1C(=O)CN(CC(=O)NCCC(=O)O)C(=O)c2cc(NC(=O)NCc3ccccc3)ccc21 [Example 3, 3-[2-[7-(3-benzyl-ureido)-1-methyl-2,5-dioxo-1,2,3,5-tetrahydro-benzo[e][1,4]diazepin-4-yl]-acetylamino]-propionic acid] | 116 °C (dec.)
3 | O=C(O)C[C@@H](NC(=O)CN1C[C@H](c2ccccc2)Oc2ccc(NC(=O)NCc3ccccc3)cc2C1=O)c1ccccc1 [Example 21, (R,S)-3-{2-[7-(3-benzyl-ureido)-5-oxo-2-phenyl-2,3-dihydro-5H-benzo[f][1,4]oxazepin-4-yl]-acetylamino}-3-phenyl-propionic acid] | 138 to 140 °C

Reference: patent publication US6506744B1, “Benzazepinone-derivatives” (Hoffmann-La Roche Inc., priority 1999, dated 2003)
